Laboratory results: EP0471516A1, “Tricyclic heterocyclic derivatives” (IMPERIAL CHEMICAL INDUSTRIES PLC, priority 1990, dated 1992)
pIC50: −log10 of the molar value.

Assays:
[1] = tested on: topoisomerase-II; assay: Test (a): in vitro topoisomerase-II interaction assay, DNA fragmentation of labelled pUC18 plasmid; type: biochemical, human; settings: test compound at 100 µM; for activity in Test (a): DNA fragmentation with topoisomerase-II from HeLa cells
Protocol: (a) An in vitro assay which determines the ability of a test compound to interact with the enzyme topoisomerase-II, obtained in partially purified form from human HeLa cervical carcinoma cells grown in cell culture. Aliquots of the topoisomerase-II so obtained are added to a mixture of plasmid DNA [0.5 ng of a linearised pUC18 plasmid labelled with [³²P]-ATP], test compound (dissolved in dimethylsulphoxide) and a conventional buffer solution comprising essential salts, bovine serum albumin, ATP, EDTA and 2-mercaptoethanol. The mixture is incubated at 30°C for 10 minutes. Sodium dodecylsulphate and proteinase K are added in turn to give final concentrations of 1% w/v and 2 mg/ml respectively and the mixture is heated to 45°C to effect proteolysis. The resultant mixture is analysed by electrophoresis on a polyacrylamide gel at pH 8.3 and 450 volts for one hour. Thereafter the gel is fixed, dried and autoradiogrammed to determine the extent of DNA fragmentation.

[2] = tested on: small-cell lung cancer cell line N417A; assay: Test (b): growth inhibition of N417A cells in culture, tetrazolium salt method; type: cell-based; settings: read-out: IC₅₀
Text: (b) Any assay which determines the ability of a test compound to inhibit the growth of the small-cell lung cancer cell line N417A in cell culture. The test is similar to that described by T. Mosmann (J. Immunol. Meths., 1983, 65, 55-63) but using the tetrazolium salt method of J. Carmichael et al. (J. Cancer Res., 1987, 47, 936-942) to assess the reductive capacity of any viable cells.

Row | Structure (SMILES) | etoposide concentration giving activity equivalent to the test compound in Test (a) [1] | activity in Test (a) [1] | pIC50 [2]
1 | COc1cc(Cn2c3ccccc3c(=O)c3ccc(Cl)cc32)cc(OC)c1O [3-chloro-10-(4-hydroxy-3,5-dimethoxybenzyl)-9,10-dihydroacridin-9-one] | 25 µM | significant activity | 6.40
2 | COc1cc(Cn2c3ccccc3c(=O)c3ccc(S(=O)(=O)CCN(C)C)cc32)cc(OC)c1O [3-(2-dimethylaminoethylsulphonyl)-10-(4-hydroxy-3,5-dimethoxybenzyl)-9,10-dihydroacridin-9-one] | 100 µM | significant activity | 6.10
3 | COc1cc(Cn2c3ccccc3c(=O)c3cccnc32)cc(OC)c1O [10-(4-hydroxy-3,5-dimethoxybenzyl)-5,10-dihydrobenzo[b][1,8]naphthyridin-5-one] | 50 µM | significant activity | 5.43
